Measured values as given in publication PMC2908602, “Placental transfer of the polybrominated diphenyl ethers BDE-47, BDE-99 and BDE-209 in a human placenta perfusion system: an experimental study” (Environmental Health, 2010).
Read-outs that look alike come from different tables or passages of the source.

Tests used:
[1] = set-up: method as in PMID 11999784; conditions: cited from earlier work
[2] = tested on: human placenta
Experimental: The study was approved by the regional Ethics Committee (KF 01-145/03 + KF(11) 260063) and the Data Protection Agency. All mothers gave informed written consent. […] The placentas were injected with a Krebs Ringer buffer containing heparin (5000 IU/ml, 5 ml/l medium) to prevent any remaining blood in fetal vessels from coagulating. The perfusions were performed in a dual perfusion system as previously described. […] Next, the lobule containing the perfused cotyledon was cut from the placenta (9 cm diameter) and placed in the perfusion chamber. The maternal circulation was connected by blunt cannulation of the intervillous space surrounding the perfused cotyledon. The perfusion media (100 mL each in fetal and maternal reservoirs) were circulated by peristaltic pumps and consisted of Krebs Ringer Buffer containing heparin (5000 IU/mL, Copenhagen University Hospital Pharmacy, 5 mL/L medium), glucose (0.6 g/100 mL), Pen-Strep (1% Substrate department standard solution, Panum Institute Copenhagen) and physiological levels of Human Serum Albumin (20% solution, CSL Behring Gmbh, dialysed in Krebs Ringer Buffer, maternal reservoir: 30 g/L; fetal reservoir: 40 g/L) and gassed with 95% O2/5% CO2 and 95% N2/5% CO2 in the maternal and fetal reservoirs, respectively. […] After at least 30 minutes of pre-perfusion to stabilise temperature and oxygen content, BDE-47, BDE-99 and BDE-209 (Cambridge Isotopes Laboratories, 1 μg/mL in ethanol, 100 μL added; final concentration of 1 ng/mL) and the positive control substance antipyrine dissolved in H2O (Aldrich-Chemie, Germany; final concentration of 100 μg/mL) were added to the maternal reservoir. The applied concentrations of PBDEs were a compromise between achieving final levels relatively close to in vivo levels and having a detection frequency close to 100%. […] The perfusions were run for four hours, and 6 mL were sampled at t = 0 from the maternal circulation and from both reservoirs before addition of the compounds and at 2, 30, 60, 130, 190 and 240 minutes after addition of the compounds. The sampled volume was not replaced.
The pH (7.2-7.4), glucose and lactate concentrations (glucose > 6 mM), and O2 tension in the maternal perfusion medium (30-35 kPa), in the fetal perfusion medium (10-15 kPa), and in the fetal venous outflow (15-20 kPa) were measured every 30 minutes using an ABL5 blood gas analyser (Radiometer, Denmark). Adjustments were made using 1 M HCl or 1 M NaOH to adjust pH, glucose solution (2,61 g/L) and increasing or decreasing the rate of 95% N2/5% CO2 gassing in the fetal perfusate or 95% O2/5% CO2 gassing in the maternal perfusate to adjust pO2 after each measurement.
In addition to the perfusion samples, the three PBDE congeners were analysed in umbilical cord blood and in the placental tissue before and after the perfusion. Samples of umbilical cord blood were taken if possible and processed to collect plasma. Subsamples of the placental tissue were taken before perfusion as well as from the cotyledon and the surrounding tissue after perfusion. Prior to placenta perfusions, adsorption tests had been performed: The chambers and tubes were perfused without placental tissue to investigate loss of substance during the perfusion, for instance through adsorption to the perfusion system.

[3] = set-up: species or system human; conditions: in vivo
Experimental: Total lipid content in placental tissue was determined according to Smedes (1999), while enzymatic lipid determination of triglyceride and cholesterol was performed on the plasma samples and total lipid was calculated as described by Covaci et al (2006).

[4] = in vivo; cited from earlier work
[5] = tested on: human placenta; conditions: cited from earlier work

## Brc1c(Br)c(Br)c(Oc2c(Br)c(Br)c(Br)c(Br)c2Br)c(Br)c1Br [BDE-209, decabromo diphenyl ether]
[1]
  logKow: ≥ 10
[2]; 4 h, 1 ng/mL
  Cotyledon (perfused tissue) level: 107.8 (64.2-159.5) ng/g lw
  Surrounding placental tissue level: 22.2 (16.3-31.8) ng/g lw
  concentration in perfused cotyledon relative to background: 20 times
  concentration in surrounding tissue relative to background: 100 times
  mass balance: amount unaccounted for (system adsorption): -8%
  mass balance: fraction of added amount in cotyledon: 24%
  mass balance: fraction of added amount in fetal circulation: 0%
  mass balance: fraction of added amount in maternal circulation: 27%
  mass balance: fraction of added amount in surrounding placental tissue: 19%
  mass balance: fraction of added amount removed by sampling: 38%
[3]
  Non-perfused placental tissue level: < LOQ
  Umbilical cord plasma level: < LOQ
[4]
  median level in placental tissue: 1.14 ng/g lw
  observed blood levels, Denmark: ~ 0.014 ng/ml
  observed blood levels, elsewhere: 0.009 to 0.15 ng/mL

## Cc1cc(=O)n(-c2ccccc2)n1C [antipyrine, reference compound]
[5]
  indicative permeability coefficient (IPC): 0.94 h⁻¹
[2]; 190 min, 100 µg/mL
  FM-ratio at 190 min: 1.04

## Cn1c(=O)c2c(ncn2C)n(C)c1=O [caffeine]
[5]; not told
  indicative permeability coefficient (IPC): 1.03 h⁻¹

## O=C(O)CNCP(=O)(O)O [glyphosate]
[5]; perfused in the same human placenta model
  indicative permeability coefficient (IPC): 0.11 h⁻¹

## c1ccc2c(c1)cc1ccc3cccc4ccc2c1c34 [benzo(a)pyrene]
[5]; human placenta perfusion
  indicative permeability coefficient (IPC): 0.08 h⁻¹
